Where two headings read alike, the source gives them in different places.
How the values were obtained:
[1] = target: T1, electric eel AChE (eeAChE) (Electrophorus electricus, UniProt O42275); details: previously reported; read-out: Enzyme Inhibition eeAChE IC50; cited from earlier work
T1 construct: purchased Sigma-Aldrich

[2] = target: T2, human placenta GST (hGST) (Homo sapiens, UniProt P09211); details: previously reported; read-out: Enzyme Inhibition hGST IC50; cited from earlier work
T2 construct: human placenta GST (hGST); purchased Sigma-Aldrich; host or cells: human placenta
T2 sequence (P09211 2-210 limits assumed): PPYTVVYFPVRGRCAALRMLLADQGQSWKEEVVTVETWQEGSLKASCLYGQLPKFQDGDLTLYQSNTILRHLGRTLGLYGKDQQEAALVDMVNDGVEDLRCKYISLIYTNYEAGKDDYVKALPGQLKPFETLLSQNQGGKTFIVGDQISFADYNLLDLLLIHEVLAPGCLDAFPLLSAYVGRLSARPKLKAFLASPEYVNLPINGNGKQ

horse liver GST (hlGST) [3] = details: previously reported, cited from earlier work; for IC50: read-out: Enzyme Inhibition hlGST IC50
[4] = target: T3, horse serum BChE (hsBChE) (Equus caballus, UniProt P81908); details: previously reported; read-out: Enzyme Inhibition hsBChE IC50; cited from earlier work
T3 construct: horse serum BChE (hsBChE); purchased Sigma-Aldrich; host or cells: horse serum
T3 sequence (P81908 whole entry): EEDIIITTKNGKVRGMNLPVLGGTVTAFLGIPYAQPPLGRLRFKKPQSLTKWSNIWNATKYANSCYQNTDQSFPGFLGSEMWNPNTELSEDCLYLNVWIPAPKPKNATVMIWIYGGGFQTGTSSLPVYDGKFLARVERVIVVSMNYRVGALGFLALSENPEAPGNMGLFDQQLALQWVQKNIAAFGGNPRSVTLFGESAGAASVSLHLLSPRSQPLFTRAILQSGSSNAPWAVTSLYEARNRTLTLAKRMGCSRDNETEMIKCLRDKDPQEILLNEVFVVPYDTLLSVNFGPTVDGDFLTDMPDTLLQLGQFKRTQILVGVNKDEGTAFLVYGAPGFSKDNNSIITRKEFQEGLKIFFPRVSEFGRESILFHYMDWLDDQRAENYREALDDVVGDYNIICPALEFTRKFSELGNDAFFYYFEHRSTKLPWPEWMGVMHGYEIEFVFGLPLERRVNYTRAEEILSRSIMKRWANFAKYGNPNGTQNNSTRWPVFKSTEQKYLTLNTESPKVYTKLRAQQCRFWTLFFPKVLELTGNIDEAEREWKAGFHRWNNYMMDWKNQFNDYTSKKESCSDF

[5] = target: T2, human placenta GST (hGST); experiment: Glutathione S-transferase inhibition assay (Habig method), hGST; type: biochemical; details: for IC50: mean ± SEM of three independent measurements, / = No activity, read-out: Enzyme Inhibition hGST IC50; for type of inhibition of hGST: Dixon plots; for Ki: determined for compounds with IC50 < 33 μM, substrate 200, 400, 800 μM, read-out: Enzyme Inhibition hGST Ki
Procedure: (§1) The activities of the GSTs were determined according to the method described by Habig et al. (1974) using a cell imaging multi-mode reader (Cytation 3; BioTek, Winooski, VT, USA). The stock solutions of inhibitors were prepared as described for the ChE inhibition assays. Then the stock solutions of the potential inhibitors and negative controls were added to the wells, and progressively diluted in 100 mM sodium phosphate buffer (pH 6.5) to the final volume of 50 μL. 1-Chloro-2,4-dinitrobenzene (Sigma-Aldrich, St. Louis, MO, USA) was dissolved in ethanol to 50 mM, and then diluted with 100 mM sodium phosphate buffer (pH 6.5) to a final concentration of 4 mM. This solution (50 μL) and 2 mM reduced glutathione (100 μL) in the same buffer were added into the microtiter plate wells. Two GSTs were used as the enzyme sources: horse liver GST (hlGST) and human placenta GST (hGST) (Sigma-Aldrich, St. Louis, MO, USA). These were dissolved in 100 mM sodium phosphate buffer (pH 6.5), and 50 μL of these enzyme solutions were added into the wells to start the reaction. The final enzyme concentration was 0.044 U/mL. The blank reactions without the inhibitors were run with the appropriate dilutions of the solvents in which the tested compounds were initially diluted (100% MeOH or 5% aqueous DMSO), and the readings were corrected according to the appropriate blanks. The reactions were followed spectrophotometrically at 340 nm at 25 °C over 4 min. Each measurement was repeated at least three times. […] The data were analysed using the OriginPro software (OriginPro 2020, OriginLab Corporation, Northampton, MA, USA).

[6] = target: T3, horse serum BChE (hsBChE); experiment: Cholinesterase inhibition assay (modified Ellman method), hsBChE; type: biochemical; details: for type of inhibition of hsBChE: Dixon plots; for IC50: mean ± SEM of three independent measurements, / = No activity, read-out: Enzyme Inhibition hsBChE IC50
Procedure: (§2) The activities of the ChEs were determined using a modification of the Ellman method adapted for microtiter plates, as described in [47]. Stock solutions of complexes 4, 5, 6, 7, 8 and 10, as well as of ligands L2 and L3 (1 mg/mL) were prepared in 100% MeOH, whereas stock solutions of complexes 2 and 3 (1 mg/mL) were prepared in 5% DMSO in deionised water. Positive control (1 mg/mL neostigmine bromide; Sigma-Aldrich, St. Louis, MO, USA) was also prepared in 100% MeOH. The stock solutions of the potential inhibitors and the positive and negative controls were added to the wells, and progressively diluted in 100 mM potassium phosphate buffer (pH 7.4) to the final volume of 50 μL. Then, 100 μL acetylthiocholine chloride (1 mM) and 5,5′-dithiobis-2-nitrobenzoic acid (0.5 mM) in 100 mM potassium phosphate buffer (pH 7.4) were added into the microtiter plate wells. Three ChEs were used as the enzyme sources: electric eel AChE (eeAChE); human recombinant AChE (hrAChE), and horse serum BChE (hsBChE) (all Sigma-Aldrich, St. Louis, MO, USA). These were dissolved in the same buffer to the final concentration of 0.0075 U/mL. Finally, 50 μL of each ChE solution was added into the microtiter plate wells to start the reaction, which was followed spectrophotometrically at 405 nm at 25 °C over 5 min using a kinetic microplate reader (Dynex Technologies Inc., Chantilly, VA, USA). The blank reactions without the inhibitors were run with the appropriate dilutions of the solvents in which the tested compounds were initially diluted (100% MeOH or 5% aqueous DMSO), and the readings were corrected according to the appropriate blanks. Each measurement was repeated at least three times. […] The data were analysed using the OriginPro software (OriginPro 2020, OriginLab Corporation, Northampton, MA, USA).

horse liver GST (hlGST) [7] = experiment: Glutathione S-transferase inhibition assay (Habig method), hlGST; type: biochemical; details: for IC50: mean ± SEM of three independent measurements, / = No activity, read-out: Enzyme Inhibition hlGST IC50; for type of inhibition of hlGST: Dixon plots; for Ki: determined for compounds with IC50 < 33 μM, substrate 200, 400, 800 μM, read-out: Enzyme Inhibition hlGST Ki
Procedure: as §1

[8] = target: T4, human recombinant AChE (hrAChE) (Homo sapiens, UniProt P22303); experiment: Cholinesterase inhibition assay (modified Ellman method), hrAChE; type: biochemical; details: for IC50: mean ± SEM of three independent measurements, / = No activity, read-out: Enzyme Inhibition hrAChE IC50; for type of inhibition of hrAChE: Dixon plots
T4 construct: purchased Sigma-Aldrich
T4 sequence (P22303 32-614): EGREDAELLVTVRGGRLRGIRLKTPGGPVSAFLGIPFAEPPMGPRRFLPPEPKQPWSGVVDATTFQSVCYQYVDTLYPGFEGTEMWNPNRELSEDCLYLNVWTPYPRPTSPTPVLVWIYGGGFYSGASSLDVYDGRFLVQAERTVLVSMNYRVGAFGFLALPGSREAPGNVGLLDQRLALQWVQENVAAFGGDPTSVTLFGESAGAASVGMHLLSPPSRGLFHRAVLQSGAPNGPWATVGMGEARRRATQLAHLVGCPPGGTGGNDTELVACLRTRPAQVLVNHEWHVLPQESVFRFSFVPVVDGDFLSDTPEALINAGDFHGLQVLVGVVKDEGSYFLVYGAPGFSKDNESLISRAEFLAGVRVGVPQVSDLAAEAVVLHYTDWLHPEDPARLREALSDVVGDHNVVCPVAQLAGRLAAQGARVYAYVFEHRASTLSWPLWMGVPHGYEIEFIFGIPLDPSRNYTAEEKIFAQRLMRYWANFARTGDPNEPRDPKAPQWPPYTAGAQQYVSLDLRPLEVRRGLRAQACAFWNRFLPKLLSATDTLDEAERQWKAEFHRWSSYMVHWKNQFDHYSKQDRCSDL
Procedure: as §2

[9] = target: T1, electric eel AChE (eeAChE); experiment: Cholinesterase inhibition assay (modified Ellman method), eeAChE; type: biochemical; details: for IC50: mean ± SEM of three independent measurements, / = No activity, read-out: Enzyme Inhibition eeAChE IC50; for type of inhibition of eeAChE: Dixon plots
Procedure: as §2

[10] = target: T4, human recombinant AChE (hrAChE); details: previously reported; read-out: Enzyme Inhibition hrAChE IC50; cited from earlier work

T1 sequence (O42275 24-633): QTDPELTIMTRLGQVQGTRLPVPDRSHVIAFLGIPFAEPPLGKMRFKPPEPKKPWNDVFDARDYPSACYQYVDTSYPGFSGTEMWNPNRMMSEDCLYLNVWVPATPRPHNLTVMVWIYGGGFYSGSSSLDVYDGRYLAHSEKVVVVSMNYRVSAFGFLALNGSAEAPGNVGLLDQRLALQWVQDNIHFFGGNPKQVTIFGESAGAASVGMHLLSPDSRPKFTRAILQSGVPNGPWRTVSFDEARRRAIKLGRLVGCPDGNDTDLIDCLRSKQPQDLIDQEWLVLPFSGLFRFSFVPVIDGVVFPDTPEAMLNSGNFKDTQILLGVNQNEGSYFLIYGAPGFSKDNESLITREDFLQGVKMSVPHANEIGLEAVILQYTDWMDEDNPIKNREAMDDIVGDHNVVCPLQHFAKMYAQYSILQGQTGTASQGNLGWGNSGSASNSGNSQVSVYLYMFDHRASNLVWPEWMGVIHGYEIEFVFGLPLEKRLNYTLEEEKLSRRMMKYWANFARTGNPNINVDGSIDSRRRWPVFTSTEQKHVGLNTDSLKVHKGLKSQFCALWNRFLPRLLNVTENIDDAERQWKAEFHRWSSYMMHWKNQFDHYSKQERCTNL

Compound	IC50 [5]	IC50 [6]	IC50 (horse liver GST (hlGST) [7])	IC50 [8]	IC50 [9]	Ki (horse liver GST (hlGST) [7])	further results
1-hydroxypyridine-2(1H)-thione [Complex L1]	–	–	–	–	–	–	IC50 [1]: > 100 µM; IC50 [2]: > 100 µM; IC50 (horse liver GST (hlGST) [3]): > 100 µM; IC50 [4]: > 100 µM
Cc1ccc(C(C)C)cc1.FC(F)(F)C1=[O+][Ru-]([P+]23CN4CN(CN(C4)C2)C3)[O]C(c2ccccc2Br)=C1.F[P-](F)(F)(F)(F)F [Complex 7, [RuCym(L2)pta]PF6]	> 100 µM	19.2 ± 1.5 µM	> 100 µM	> 100 µM	> 100 µM	–	type of inhibition of hsBChE [6]: reversible and competitive; Ki ([6]; determined for compounds with IC50 < 33 μM, substrate 0.125, 0.25, 0.5 mM, read-out: Enzyme Inhibition hsBChE Ki): 9.26 µM
O=[C]=[Ru-2]12(=[C]=O)([O][n+]3ccccc3[S]1)[O][n+]1ccccc1[S]2 [Complex 8, [Ru(L1)2(CO)2]]	16.6 ± 1.4 µM	> 100 µM	–	> 100 µM	> 100 µM	0.85 µM	type of inhibition of hGST [5]: reversible and competitive; Ki [5]: 9.65 µM; type of inhibition of hlGST (horse liver GST (hlGST) [7]): reversible and competitive
O=C(CC(=O)C(F)(F)F)c1ccccc1Br [Complex L2, 1-(2-bromophenyl)-4,4,4-trifluorobutane-1,3-dione, reference compound]	> 100 µM	> 100 µM	> 100 µM	> 100 µM	> 100 µM	–	–
CCCCCCCCCCCCCCCCCC(=O)CC(=O)c1ccccc1 [Complex L3, 1-phenylicosane-1,3-dione, reference compound]	> 100 µM	> 100 µM	> 100 µM	> 100 µM	> 100 µM	–	–
CN(C)C(=O)Oc1cccc([N+](C)(C)C)c1 [Neostigmine methylsulphate, reference compound]	> 100 µM	92.7 ± 2.2 µM	> 100 µM	–	5.98 ± 1 µM	–	–
Cc1ccc(C(C)C)cc1.Cc1ccc(C(C)C)cc1.[Cl][Ru][Cl].[Cl][Ru][Cl] [Precursor 9, dichloro(p-cymene) ruthenium(II) dimer [Ru(p-cymene)Cl2]2]	–	–	–	–	–	–	IC50 [1]: > 100 µM; IC50 [2]: > 100 µM; IC50 [10]: > 100 µM; IC50 (horse liver GST (hlGST) [3]): > 100 µM; IC50 [4]: 32.7 ± 4.3 µM
[RuCym(L1)Br] [Complex 2]	4.64 ± 3.7 µM	–	–	–	–	0.79 µM	type of inhibition of hGST [5]: reversible and competitive; Ki [5]: 4.08 µM; type of inhibition of hsBChE [6]: reversible and competitive; type of inhibition of hlGST (horse liver GST (hlGST) [7]): reversible and competitive; type of inhibition of hrAChE [8]: reversible and competitive; type of inhibition of eeAChE [9]: reversible and competitive
[RuCym(L1)Cl] [Complex 1]	–	–	–	–	–	–	IC50 [2]: 45 ± 5.2 µM; IC50 (horse liver GST (hlGST) [3]): 2.26 ± 0.5 µM; Ki (horse liver GST (hlGST) [3]; read-out: Enzyme Inhibition hlGST Ki): 10 µM
[RuCym(L1)I] [Complex 3]	16 ± 3 µM	–	–	–	–	1.6 µM	type of inhibition of hGST [5]: reversible and competitive; Ki [5]: 8.6 µM; type of inhibition of hsBChE [6]: reversible and competitive; type of inhibition of hlGST (horse liver GST (hlGST) [7]): reversible and competitive; type of inhibition of hrAChE [8]: reversible and competitive; type of inhibition of eeAChE [9]: reversible and competitive
[RuCym(L1)pta]PF6 [Complex 6]	–	–	> 100 µM	–	–	–	–
tricarbonyldichlororuthenium(II) dimer [Ru(CO)3Cl2]2 [Precursor 10, reference compound]	97.7 ± 1 µM	–	9.76 ± 0.4 µM	–	–	2.93 µM	inhibition of hGST (in words) [5]: only weakly
